Assay results from patent US4511504A, “Carboxyalkyl peptide derivatives” (G.D. Searle & Co., priority 1983, dated 1985).

Biological target: T1, Human Rheumatoid Synovial Collagenase (Homo sapiens, UniProt P03956)
T1 construct: Human Rheumatoid Synovial Collagenase; from tissue; host or cells: human rheumatoid synovium (from the name only; the preparation is not described)
T1 sequence (P03956 100-469): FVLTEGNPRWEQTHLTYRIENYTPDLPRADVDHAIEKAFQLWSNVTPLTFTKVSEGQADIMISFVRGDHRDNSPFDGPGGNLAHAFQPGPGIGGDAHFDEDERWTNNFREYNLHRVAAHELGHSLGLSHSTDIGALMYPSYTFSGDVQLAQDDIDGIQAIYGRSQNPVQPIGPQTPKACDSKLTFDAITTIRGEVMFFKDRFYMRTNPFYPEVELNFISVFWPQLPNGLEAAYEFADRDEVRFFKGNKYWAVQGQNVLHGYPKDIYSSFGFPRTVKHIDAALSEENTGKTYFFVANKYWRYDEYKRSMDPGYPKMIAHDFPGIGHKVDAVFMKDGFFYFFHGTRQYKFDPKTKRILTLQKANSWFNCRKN
Assay: Collagenase inhibition, procedure of Cawston and Barrett (acetyl 14C collagen hydrolysis)
Format: biochemical
Conditions: inhibitor concentration effecting 50% inhibition; 37° C., 16 hours, native acetyl 14C collagen, Tris HCl-CaCl2 pH 7.6
Experimental: This was determined following the procedure of Cawston and Barrett, Anal. Biochem., 99, 340-345 (1979) whereby the 1 mM of the inhibitor being tested or dilutions thereof are incubated at 37° C. for 16 hours with native collagen and collagenase (buffered with Tris HCl--CaCl2; pH 7.6). The collagen is acetyl ^14 C collagen. The samples are centrifuged to sediment undigested collagen and an aliquot of the radiactive supernatant removed for assay on a scintillation counter as a measure of hydrolysis. The collagenase activity in the presence of 1 mM inhibitor, or a dilution thereof is compared to activity in a control devoid of inhibitor and the results reported as that inhibitor concentration effecting 50% inhibition of the collagenase.

IC50: 25 µM
Compound: CCCCNC(=O)[C@H](C)NC(=O)[C@H](CC(C)(C)C)N[C@H](C)C(=O)O [Example 23, N-[2-(S)-N-(1-(R)-Carboxyethyl)amino-4,4-dimethylpentanoyl]-L-alanine N-Butylamide]
